# From patent US7615361B2, “Toxicity screening methods” (Ceetox, Inc., priority 2006, dated 2009)
# Tests used:
# iNOS = assay: bDNA analysis of mRNA in rat cardiomyocytes; format: cell-based
# Method: Nitric oxide was also evaluated since it has been implicated in many pathways related to oxidative stress, apoptosis, and cardiac hypertrophy. More specifically, adriamycin induced mitochondrial toxicity is reduced in the presence of increased iNOS. Thus, a compensatory response to mitochondrial toxicity may be an increase in iNOS (Chaiswing et al., 2005). In this example, rat cardiomyocytes exposed to adriamycin induced iNOS expression more than 15-fold (FIG. 27C).
# bDNA Sample Collection and Storage: After 48 hr compound exposure in 96-well plates, 50 μL of stock lysis mixture was added to each 100 μL well. Plates were mixed using a DPC 5 Micromix plate shaker at 37° C. for 15-30 minutes to ensure complete lysis of cells. Cell lysis was confirmed using a Nikon inverted microscope. Plates were stored at −80° C. until further analysis.
# bDNA Analysis (Day 1): All solutions were prepared fresh on the day of analysis. Quantigene® bDNA kit components were brought to room temperature prior to use. […]
# Substrate working solution was prepared by adding 30 μL of 10% Lithium Lauryl Sulfate to 10 mL Substrate solution per plate. […] Upon completion of last incubation, luminescence was measured using a Packard Fusion or equivalent plate reader with plate heater set to 46° C. Data were collected as relative light units (RLU) and expressed as fold change relative to controls after background subtract.
# rat cardiomyocytes = assay: MemTox membrane leakage (AK / α-GST); format: cell-based; conditions: rat, 24 hr
# In short: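 Neonatal rat cardiomyocytes were dosed, and the culture medium was collected at the end of exposure to measure total leaked adenylate kinase (luminescence) and/or α-GST (ELISA, 450/650 nm). Percent dead cells was set against 1 mM digitonin as maximum release, then converted to percent live. Values are means of n=3-7.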
# SK-MEL28 cells = assay: BrdU incorporation; format: cell-based, human; conditions: SK-MEL28, 24 hr exposure to 5 and 10 μM
# Method: Bromodexoyurine (BrDU) Incorporation: This assay was used to monitor cumulative changes in DNA replication. The assay uses the thymidine analog BrdU to measure S-phase of cell replication and is considered to be the Gold Standard for cell proliferation. BrDU (10 μM) was included in the test compound dosing solution to allow BrDU incorporation during cell replication. BrDU was included for the duration of the exposure, 24 hr. After completion of exposure period, the cells were fixed and labeled with mouse monoclonal anti-BrDU (FITC). Fluorescence was measured using a Packard Fusion or equivalent plate reader at 485 nm excitation and 530 nm emission.
# Bromodexoyurine (BrDU) Incorporation: After incubation, the test compound/BrDU solution was removed and cells were fixed. A solution containing mouse monoclonal anti-BrDU (FITC) was added and fluorescence was measured. Data were collected as relative fluorescent units (RFU). The blank was subtracted from the final well RFU. It represents the average of the first and last columns which contain no cells on that particular plate. The controls are untreated cells allowed to grow on the same plate. The compounds are represented by several separate RFU data points for each of the tested concentrations. The percent change relative to controls was calculated by dividing the average RFU by the control cell RFU and multiplying by 100.
# Experiments were also conducted to verify the relationship between exposure time and the observed cytostatic effects of the test compound. An additional assay was used to monitor cumulative change in DNA replication. The assay uses the thymidine analog BrdU to measure S-phase of cell replication and is considered to be the Gold Standard for cell proliferation. […] The BrdU assay paralleled the MTT and propidium iodide assays. The apparent lower sensitivity of the BrdU assay is a reflection of the experimental design not the assay. BrdU data represents a cumulative effect from the beginning of exposure while the other assays are measuring one is remaining at the end of either the 24 hr or 72 hr exposure period. […] There was a trend toward increasing activity in caspase-3, a marker for cell apoptosis.
Compound,iNOS expression induction (iNOS),more potent in the heart cells than in liver cells (cell death as marker) (rat cardiomyocytes),Cell proliferation as measured by the S-phase marker BrdU (SK-MEL28 cells)
"COc1cccc2c1C(=O)c1c(O)c3c(c(O)c1C2=O)C[C@@](O)(C(=O)CO)C[C@@H]3O[C@H]1C[C@H](N)[C@H](O)[C@H](C)O1 [ADRIAMYCIN, Adriamycin]",more than 15 fold,about 2.5 fold,
"CC[C@@]1(O)C(=O)OCc2c1cc1n(c2=O)Cc2cc3ccccc3nc2-1 [CAMPTOTHECIN, Camptothecin]",,,undetectable
